The values below come from patent US9375002B2, “5-aminopyrimidine derivatives and use thereof for combating undesired plant growth” (BAYER INTELLECTUAL PROPERTY GMBH, priority 2012, dated 2016).

What all share (assay type): in vivo
The test system of one assay is Alopecurus myosuroides. The experiment in a line: Pre-emergence herbicidal effect. The conditions noted are these: 1280 g/ha, visual assessment after 3 weeks. The text has this:
(§1) 1. Pre-Emergence Herbicidal Effect and Crop Plant Compatibility Seeds of monocotyledonous and dicotyledonous weed plants and crop plants are placed in wood-fiber pots in sandy loam and covered with soil. The inventive compounds, formulated in the form of wettable powders (WP) or as emulsion concentrates (EC), are then applied to the surface of the covering soil as an aqueous suspension or emulsion at a water application rate of 600 to 800 I/ha (converted) with addition of 0.2% wetting agent. After the treatment, the pots are placed in a greenhouse and kept under good growth conditions for the test plants. The damage to the test plants is assessed visually after a test period of 3 weeks by comparison with untreated controls (herbicidal activity in percent (%): 100% action=the plants have died, 0% action=like control plants). ABUTH: Abutilon theophrasti ALOMY: Alopecurus myosuroides

Assay [1] relates to Abutilon theophrasti. In words: Pre-emergence herbicidal effect. The conditions noted are these: 1280 g/ha, visual assessment after 3 weeks.
Text: as §1

The test system of the next assay is Setaria viridis. The experiment in a line: Pre-emergence herbicidal effect. The conditions noted are these: 1280 g/ha, visual assessment after 3 weeks.
Text: as §1, with “POLCO: Polygonum convolvulus SETVI: Setaria viridis” for “ABUTH: Abutilon theophrasti ALOMY: Alopecurus myosuroides”

The test system of assay [2] is Polygonum convolvulus. The experiment in a line: Pre-emergence herbicidal effect. The conditions noted are these: 1280 g/ha, visual assessment after 3 weeks.
Text: as §1, with “POLCO: Polygonum convolvulus SETVI: Setaria viridis” for “ABUTH: Abutilon theophrasti ALOMY: Alopecurus myosuroides”

Assay [3] deals with Echinochloa crus-galli. The experiment in a line: Post-emergence herbicidal effect. The conditions noted are these: 1280 g/ha, visual rating after about 3 weeks. On the procedure: (§2) AMARE: Amaranthus retroflexus ECHCG: Echinochloa crus-galli 2. Post-Emergence Herbicidal Effect and Crop Plant Compatibility Seeds of monocotyledonous and dicotyledonous weed and crop plants are placed in sandy loam in wood-fiber pots, covered with soil and cultivated in a greenhouse under good growth conditions. 2 to 3 weeks after sowing, the test plants are treated at the one-leaf stage. The compounds according to the invention, formulated in the form of wettable powders (WP) or as emulsion concentrates (EC), are then sprayed as aqueous suspension or emulsion at a water application rate of 600 to 800 I/ha (converted) with the addition of 0.2% of wetting agent onto the green parts of the plants. After the test plants have been kept in the greenhouse under optimum growth conditions for about 3 weeks, the activity of the preparations is rated visually in comparison to untreated controls (herbicidal activity in percent (%): 100% activity=the plants have died, 0% activity=like control plants).

Assay [4] concerns Abutilon theophrasti. The experiment in a line: Post-emergence herbicidal effect. The conditions noted are these: 1280 g/ha, visual rating after about 3 weeks. On the procedure: as §2, with “ABUTH: Abutilon theophrasti ALOMY: Alopecurus myosuroides” for “AMARE: Amaranthus retroflexus ECHCG: Echinochloa crus-galli”
Assay [5] deals with Echinochloa crus-galli. The experiment in a line: Pre-emergence herbicidal effect. The settings on record: 1280 g/ha, visual assessment after 3 weeks.
Text: as §1, with “AMARE: Amaranthus retroflexus ECHCG: Echinochloa crus-galli” for “ABUTH: Abutilon theophrasti ALOMY: Alopecurus myosuroides”

Another assay has as its system Amaranthus retroflexus. The experiment in a line: Pre-emergence herbicidal effect. The conditions noted are these: 1280 g/ha, visual assessment after 3 weeks.
Text: as §1, with “AMARE: Amaranthus retroflexus ECHCG: Echinochloa crus-galli” for “ABUTH: Abutilon theophrasti ALOMY: Alopecurus myosuroides”

Assay [6] relates to Polygonum convolvulus. In words: Post-emergence herbicidal effect. The conditions noted are these: 1280 g/ha, visual rating after about 3 weeks. How it is done: as §2, with “POLCO: Polygonum convolvulus SETVI: Setaria viridis” for “AMARE: Amaranthus retroflexus ECHCG: Echinochloa crus-galli”
Another assay deals with Veronica persica. The experiment in a line: Pre-emergence herbicidal effect. The settings on record: 1280 g/ha, visual assessment after 3 weeks.
Text: as §1, with “STEME: Stellaria media VERPE: Veronica persica” for “ABUTH: Abutilon theophrasti ALOMY: Alopecurus myosuroides”

For the next assay, the system named is Stellaria media. The experiment in a line: Pre-emergence herbicidal effect. The settings on record: 1280 g/ha, visual assessment after 3 weeks.
Text: as §1, with “STEME: Stellaria media VERPE: Veronica persica” for “ABUTH: Abutilon theophrasti ALOMY: Alopecurus myosuroides”

Take `Cc1ccc2c(c1)[C@H](Nc1cnc(S(C)(=O)=O)nc1)[C@@H](C)C2` [compound 134]: in the assay with Alopecurus myosuroides, the “herbicidal activity ALOMY” value amounted to 100%. In addition, the “herbicidal activity ABUTH” value is 100% in the assay with Abutilon theophrasti [1] and 90% in the assay with Abutilon theophrasti [4]. Further, the “herbicidal activity SETVI” value with Setaria viridis was determined as 100%. In addition, the “herbicidal activity POLCO” value came to 100% in the assay on Polygonum convolvulus [2] and 90% in the assay with Polygonum convolvulus [6]. The “herbicidal activity ECHCG” value with Echinochloa crus-galli [3] turned out to be 90%; with Echinochloa crus-galli [5] it was 100%. Moreover, the “herbicidal activity AMARE” value in the assay on Amaranthus retroflexus amounted to 100%. In addition, in the assay with Veronica persica, the “herbicidal activity VERPE” value was found to be 100%. For the same compound, the “herbicidal activity STEME” value with Stellaria media is listed as 100%.

In the case of `CCc1ccc2c(c1)C(Nc1cnc(S(C)(=O)=O)nc1C(=O)O)CCO2` (racemic) [compound 68], in the assay with Alopecurus myosuroides, the “herbicidal activity ALOMY” value is reported as 100%. Further, the “herbicidal activity ABUTH” value in the assay with Abutilon theophrasti [1] is 100%; in the assay with Abutilon theophrasti [4], 90%. In the assay with Setaria viridis, the “herbicidal activity SETVI” value came out at 100%. The “herbicidal activity POLCO” value in the assay with Polygonum convolvulus [2] amounted to 100%; with Polygonum convolvulus [6] it was 80%. The “herbicidal activity ECHCG” value with Echinochloa crus-galli [3] is 90%; with Echinochloa crus-galli [5] it was 100%. Moreover, in the assay on Amaranthus retroflexus, the “herbicidal activity AMARE” value was 100%. Besides, the “herbicidal activity VERPE” value in the assay on Veronica persica was found to be 100%. In addition, in the assay on Stellaria media, the “herbicidal activity STEME” value is 100%.

Turning to `CCc1ccc2c(c1)C(Nc1cnc(S(C)(=O)=O)nc1)CCO2` (racemic) [compound 65], the “herbicidal activity ALOMY” value with Alopecurus myosuroides was 90%. The results for the “herbicidal activity ABUTH” value with Abutilon theophrasti [1] and with Abutilon theophrasti [4] were 100% and 90%, respectively. In addition, the “herbicidal activity SETVI” value in the assay with Setaria viridis was 100%. In addition, the “herbicidal activity POLCO” value in the assay on Polygonum convolvulus [2] was 100%; in the assay with Polygonum convolvulus [6] it was 80%. Moreover, the “herbicidal activity ECHCG” value in the assay with Echinochloa crus-galli [3] and in the assay on Echinochloa crus-galli [5] was 100% in each case. For the same compound, in the assay with Amaranthus retroflexus, the “herbicidal activity AMARE” value is reported as 100%. The “herbicidal activity VERPE” value in the assay with Veronica persica is on record as 100%. Besides, the “herbicidal activity STEME” value with Stellaria media was determined as 100%.
